Data published in PubChem BioAssay AID2060488 (Molecular Pharmacology Branch, DTP, NCI, 2025).
Where “and” joins values, the source holds several entries; their conditions need not be identical. Equal values may be shown once.

Tested on: 966289-007-R4-J1-PDC complex spheroid viability
Assay: Anticancer human tumor 966289-007-R4-J1-PDC patient-derived pancreatic adenocarcinoma cell line growth inhibition [GQUAD]
Details: for viability, T/C: stronger effect = lower value
Text: DNA G-quadruplex Stabilizer Agents in Combinations in Complex Spheroids
A high-throughput screen of multi-cell type tumor spheroids was designed to identify active combinations of DNA G-quadruplex stabilizer agents and targeted small molecules. Complex spheroids include a stromal component modeled by human endothelial cells (HUVEC) and fibroblasts modeled by human mesenchymal stem cells (MSCs). The concentration ranges selected for each drug and investigational agent were based upon clinically achievable concentrations if the clinical Cmax of the agent was known.
Compounds. The drugs and investigational agents: pidnarulex (CX-5461; NSC782164), APTO-253 (NSC789042), BRACO-19 (NSC847499), peposertib (NSC802822), ceralasertib (NSC780249), elimusertib (NSC800525), camonsertib (NSC841442), AZD-1390 (NSC803789), olaparib (NSC753686), talazoparib (NSC767125), ART-558 (NSC835418), sotorasib (NSC818433), MRTX-1133 (NSC836407), SN-38 (NSC673596), topotecan (NSC609699), etoposide (NSC141540), doxorubicin (NSC123127), gemcitabine (NSC613327), 5-fluorouracil (NSC19893), paclitaxel (NSC125973), vemurafenib (NSC761431), panobinostat (NSC761190), R-306465 (JNJ-16241199; NSC773264), adavosertib (NSC754352), TP-3654 (NSC805149), carboplatin (NSC241240), KSQ-4279 (NSC840948), and staurosporine (NSC755774) were obtained from the National Cancer Institute (NCI) Developmental Therapeutics Program Chemical Repository (34). The FDA-approved anticancer drug set is available from the NCI Developmental Therapeutics Program. […] The stock solutions were prepared in dimethyl sulfoxide (DMSO, Sigma-Aldrich, St. Louis, MO, cat. D2650) at 800-fold the tested concentration and stored at -70 degrees C prior to their use. All drugs and investigational agents were tested over a range starting from a high concentration at or near the clinical Cmax and decreasing in half-log increments. If the clinical Cmax for an agent had not been determined, the highest concentration tested was 10 microM.
2.3 Cell Culture. All cells were maintained in an incubator at 37 degrees C and 5% CO2 with 95% humidity. The PDC lines were cultured according to standard operating procedures established by the NCI PDMR. All PDCs were thawed and cultured in Matrigel-coated flasks prepared with a working solution of 1X Ham's F-12 nutrient mix, without supplementation (Invitrogen, cat. 11765054), 100 U/mL penicillin-streptomycin (Invitrogen, cat. 15140122), and 2.5% Matrigel (Corning Inc., cat. 354248) for the first three passages. The 857933-349-R-J2-PDC line was cultured in 6C/Colon 1B media, which includes advanced DMEM/F-12 (Thermo Fisher Scientific, cat. 12634028), 10 mM HEPES (Thermo Fisher Scientific, cat. 15630080), 1X GlutaMAX supplement (Thermo Fisher Scientific, cat. 35050061), 0.1 mg/mL primocin (InvivoGen, cat. ant-pm-2), 10% defined fetal bovine serum, heat inactivated (HyClone Laboratories Inc., cat. SH30070.03HI), 50% L-WRN conditioned media (ATCC, cat. CRL-3276), 1.25 mM N-Acetyl-L-cysteine (Sigma-Aldrich, cat. A9165), 10 mM nicotinamide (Sigma-Aldrich, cat. N0636), 1X B-27 supplement (Thermo Fisher Scientific, cat. 17504044), 1X N-2 supplement (Thermo Fisher Scientific, cat. 17502048), 10 microM Y-27632 dihydrochloride (Tocris Bioscience, cat. 1254), and 50 ng/mL human EGF recombinant protein (Thermo Fisher Scientific, cat. PHG0311). The 485176-168-R4-J1-PDC line was cultured in Panc media, which includes all 6C/Colon 1B media components plus 100 ng/mL human FGF-10 (Thermo Fisher Scientific, cat. 100-26), 500 nM SB-431542 (Selleckchem, cat. S1067), and gastrin (Tocris, cat. 3006).
[…]

[1] = curve of first compound, second compound 0.0316 µM
[2] = curve of first compound, second compound 0.1 µM
[3] = curve of first compound, second compound 0.316 µM
[4] = curve of first compound, second compound 1 µM
[5] = curve of first compound, second compound 3.16 µM
[6] = curve of first compound, second compound 10 µM
[7] = second compound 0.0316 µM, first compound 0.0316 µM
[8] = second compound 0.0316 µM, first compound 0.316 µM
[9] = second compound 0.1 µM, first compound 0.0316 µM
[10] = second compound 0.1 µM, first compound 0.316 µM
[11] = second compound 0.316 µM, first compound 0.0316 µM
[12] = second compound 0.316 µM, first compound 0.316 µM
[13] = second compound 1 µM, first compound 0.0316 µM
[14] = second compound 1 µM, first compound 0.316 µM
[15] = second compound 3.16 µM, first compound 0.0316 µM
[16] = second compound 3.16 µM, first compound 0.316 µM
[17] = second compound 10 µM, first compound 0.0316 µM
[18] = second compound 10 µM, first compound 0.316 µM
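Note: spheroids exposed to the agents for seven days before readout.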
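Throughout, for viability, T/C: percent viability relative to DMSO vehicle control wells taken as 100%.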

O=C(c1cc(Cc2n[nH]c(=O)c3ccccc23)ccc1F)N1CCN(C(=O)C2CC2)CC1 + Cc1cnc(CNC(=O)c2c(=O)c3ccc(N4CCCN(C)CC4)nc3n3c2sc2ccccc23)cn1
IC50 [1]: 1380 nM
IC50 [2]: < 31.6 nM
IC50 [3]: < 31.6 nM
IC50 [4]: < 31.6 nM
IC50 [5]: < 31.6 nM
IC50 [6]: < 31.6 nM
viability, T/C [7]: 113%
viability, T/C (second compound 0.0316 µM, first compound 0.1 µM): 106%
viability, T/C [8]: 98.9%
viability, T/C (second compound 0.0316 µM, first compound 1 µM): 58.9%
viability, T/C (second compound 0.0316 µM, first compound 3.16 µM): 23.3%
viability, T/C (second compound 0.0316 µM, first compound 10 µM): 4.08%
viability, T/C [9]: 33.8%
viability, T/C (second compound 0.1 µM, first compound 0.1 µM): 26%
viability, T/C [10]: 22%
viability, T/C (second compound 0.1 µM, first compound 1 µM): 17.1%
viability, T/C (second compound 0.1 µM, first compound 3.16 µM): 8.17%
viability, T/C (second compound 0.1 µM, first compound 10 µM): 4.33%
viability, T/C [11]: 13.5%
viability, T/C (second compound 0.316 µM, first compound 0.1 µM): 11%
viability, T/C [12]: 9.09%
viability, T/C (second compound 0.316 µM, first compound 1 µM): 7.84%
viability, T/C (second compound 0.316 µM, first compound 3.16 µM): 3.87%
viability, T/C (second compound 0.316 µM, first compound 10 µM): 2.13%
viability, T/C [13]: 5.15%
viability, T/C (second compound 1 µM, first compound 0.1 µM): 5.03%
viability, T/C [14]: 4.87%
viability, T/C (second compound 1 µM, first compound 1 µM): 4.62%
viability, T/C (second compound 1 µM, first compound 3.16 µM): 3%
viability, T/C (second compound 1 µM, first compound 10 µM): 1.77%
viability, T/C [15]: 3.25%
viability, T/C (second compound 3.16 µM, first compound 0.1 µM): 5.08%
viability, T/C [16]: 3.5%
viability, T/C (second compound 3.16 µM, first compound 1 µM): 2.42%
viability, T/C (second compound 3.16 µM, first compound 3.16 µM): 0.47%
viability, T/C (second compound 3.16 µM, first compound 10 µM): 0.13%
viability, T/C [17]: 0.11%
viability, T/C (second compound 10 µM, first compound 0.1 µM): 0.34%
viability, T/C [18]: 0.18%
viability, T/C (second compound 10 µM, first compound 1 µM): 0.14%
viability, T/C (second compound 10 µM, first compound 3.16 µM): 0.16%
viability, T/C (second compound 10 µM, first compound 10 µM): 0.58%

CC1COCCN1c1cc(C2(O)CC3CCC(C2)O3)c2cnn(-c3ccn[nH]3)c2n1 (stereo not drawn)
viability, T/C (compound 0.0316 µM): 112% and 111% and 109%
viability, T/C (compound 0.1 µM): 64.2% and 55% and 74.8%
viability, T/C (compound 0.316 µM): 16.3% and 13.5% and 20.4%
viability, T/C (compound 1 µM): 5.75% and 6.02% and 11.2%
viability, T/C (compound 3.16 µM): 4.81% and 4.92% and 6.7%
viability, T/C (compound 10 µM): 4.35% and 4.17% and 5.99%
IC50 (curve of compound): 141 nM and 115 nM and 170 nM

Cc1[nH]c2ccccc2c1CCNCc1ccc(/C=C/C(=O)NO)cc1 + Cc1[nH]c2ccc(F)cc2c1-c1nc2c3cccnc3c3ncccc3c2[nH]1
IC50 [1]: 76 nM
IC50 [2]: 92.8 nM
IC50 [3]: 95.8 nM
IC50 [4]: 127 nM
IC50 [5]: 79.7 nM
IC50 [6]: 104 nM
viability, T/C (second compound 0.0316 µM, first compound 0.000999 µM): 110%
viability, T/C (second compound 0.0316 µM, first compound 0.00316 µM): 104%
viability, T/C (second compound 0.0316 µM, first compound 0.00999 µM): 107%
viability, T/C [7]: 103%
viability, T/C (second compound 0.0316 µM, first compound 0.0999 µM): 33.6%
viability, T/C [8]: 4.95%
viability, T/C (second compound 0.1 µM, first compound 0.000999 µM): 111%
viability, T/C (second compound 0.1 µM, first compound 0.00316 µM): 109%
viability, T/C (second compound 0.1 µM, first compound 0.00999 µM): 111%
viability, T/C [9]: 105%
viability, T/C (second compound 0.1 µM, first compound 0.0999 µM): 46.2%
viability, T/C [10]: 5.29%
viability, T/C (second compound 0.316 µM, first compound 0.000999 µM): 106%
viability, T/C (second compound 0.316 µM, first compound 0.00316 µM): 108%
viability, T/C (second compound 0.316 µM, first compound 0.00999 µM): 113%
viability, T/C [11]: 107%
viability, T/C (second compound 0.316 µM, first compound 0.0999 µM): 47.8%
viability, T/C [12]: 6.15%
viability, T/C (second compound 1 µM, first compound 0.000999 µM): 98.5%
viability, T/C (second compound 1 µM, first compound 0.00316 µM): 103%
viability, T/C (second compound 1 µM, first compound 0.00999 µM): 111%
viability, T/C [13]: 108%
viability, T/C (second compound 1 µM, first compound 0.0999 µM): 61.5%
viability, T/C [14]: 5.78%
viability, T/C (second compound 3.16 µM, first compound 0.000999 µM): 107%
viability, T/C (second compound 3.16 µM, first compound 0.00316 µM): 114%
viability, T/C (second compound 3.16 µM, first compound 0.00999 µM): 117%
viability, T/C [15]: 110%
viability, T/C (second compound 3.16 µM, first compound 0.0999 µM): 35.4%
viability, T/C [16]: 5.51%
viability, T/C (second compound 10 µM, first compound 0.000999 µM): 110%
viability, T/C (second compound 10 µM, first compound 0.00316 µM): 104%
viability, T/C (second compound 10 µM, first compound 0.00999 µM): 114%
viability, T/C [17]: 93.5%
viability, T/C (second compound 10 µM, first compound 0.0999 µM): 52.2%
viability, T/C [18]: 5.13%

O=c1[nH]cc(F)c(=O)[nH]1
viability, T/C (compound 0.0316 µM): 102% and 98.6% and 93.7%
viability, T/C (compound 0.1 µM): 102% and 85.7% and 101%
viability, T/C (compound 0.316 µM): 14% and 12.6% and 16.4%
viability, T/C (compound 1 µM): 6.4% and 6.04% and 6.66%
viability, T/C (compound 3.16 µM): 6.46% and 5.66% and 4.89%
viability, T/C (compound 10 µM): 6.43% and 6.71% and 6.08%
IC50 (curve of compound): 197 nM and 176 nM and 196 nM
